Literature values in patent US20010036486A1, “Method for treating nicotine addiction and deterring tobacco use with hypericum perforatum” (priority 2000, published 2001).

Conditions: small study; Edward et al. 1989

CN(C)CCC=C1c2ccccc2COc2ccccc21 [doxepin]
help for smoking cessation: showed some promise for helping smoking cessation
